Consider one compound from US6359130B1, “Bridged indenopyrrolocarbazoles” (Cephalon, Inc., priority 1998, dated 2002).

One may read the IC50 as the midpoint of a concentration-inhibition curve.

Structures are written as SMILES.

Assay [1] has as its target T1, baculovirus-expressed human trkA cytoplasmic domain (Homo sapiens, UniProt P04629).
T1 construct: baculovirus-expressed human trka cytoplasmic domain; made in house; host or cells: baculovirus expression system
The experiment in a line: Inhibition of trkA tyrosine kinase activity (ELISA-based assay). It counts as biochemical. Particulars: 40 μM ATP. The procedure: Selected bridged indenopyrrolocarbazole compounds were tested for their ability to inhibit the kinase activity of baculovirus-expressed human trka cytoplasmic domain using an ELISA-based assay as previously described (Angeles et al., Anal. Biochem. 236: 49-55, 1996). Briefly, the 96-well microtiter plate was coated with substrate solution (recombinant human phospholipase C-γl/glutathione S-transferase fusion protein (Rotin et al., EMBO J., 11: 559-567, 1992). Inhibition studies were performed in 100 μl assay mixtures containing 50 mM Hepes, pH 7.4, 40 μM ATP, 10 mM MnCl2, 0.1% BSA, 2% DMSO, and various concentrations of inhibitor. The reaction was initiated by addition of trkA kinase and allowed to proceed for 15 minutes at 37° C. An antibody to phosphotyrosine (UBI) was then added, followed by a secondary enzyme-conjugated antibody, alkaline phosphatase-labelled goat anti-mouse IgG (Bio-Rad). The activity of the bound enzyme was measured via an amplified detection system (Gibco-BRL). Inhibition data were analyzed using the sigmoidal dose-response (variable slope) equation in GraphPad Prism.
(ELISA stands for enzyme-linked immunosorbent assay.)

In assay [2] the target is T2, VEGF receptor (human flk-1, KDR, VEGFR2) kinase domain (Homo sapiens, UniProt P35968).
T2 construct: VEGF receptor (human flk-1, KDR, VEGFR2) kinase domain; made in house; host or cells: baculovirus expression system
T2 sequence (P35968 834-1162 limits assumed): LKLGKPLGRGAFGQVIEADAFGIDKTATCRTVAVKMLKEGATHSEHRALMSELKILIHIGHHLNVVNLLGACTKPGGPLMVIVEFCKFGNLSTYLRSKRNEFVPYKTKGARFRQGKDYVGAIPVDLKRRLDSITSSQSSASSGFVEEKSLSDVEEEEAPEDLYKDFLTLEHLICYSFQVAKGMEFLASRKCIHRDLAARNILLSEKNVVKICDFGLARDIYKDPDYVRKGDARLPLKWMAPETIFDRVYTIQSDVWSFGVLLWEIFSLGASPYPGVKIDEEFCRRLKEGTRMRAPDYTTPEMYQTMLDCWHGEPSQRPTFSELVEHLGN
The assay can be described thus: Inhibition of VEGF receptor kinase activity (ELISA). Particulars: 40 μM ATP; read-out: VEGFR kinase IC50. It counts as biochemical. The method, then: Bridged indenopyrrolocarbazole compounds were examined for their inhibitory effects on the kinase activity of baculovirus-expressed VEGF receptor (human flk-1, KDR, VEGFR2) kinase domain using the procedure described for the trkA kinase ELISA assay described above. The kinase reaction mixture, consisting of 50 mM Hepes, pH 7.4, 40 μM ATP, 10 mM MnCl2, 0.1% BSA, 2% DMSO, and various concentrations of inhibitor, was transferred to PLC-γ/GST-coated plates. VEGFR kinase was added and the reaction was allowed to proceed for 15 min. at 37° C. Detection of phosphorylated product was accomplished by addition of anti-phosphotyrosine antibody (UBI). A secondary enzyme-conjugated antibody was delivered to capture the antibody-phosphorylated PLC-γ/GST complex. The activity of the bound enzyme was measured via an amplified detection system (Gibco-BRL). Inhibition data were analyzed using the sigmoidal dose-response (variable slope) equation in GraphPad Prism.

The target of assay [3] is T3, PDGFβ receptor kinase domain (Homo sapiens, UniProt P09619).
T3 construct: baculovirus-expresses PDGFβ receptor kinase domain; made in house; host or cells: baculovirus expression system
T3 sequence (P09619 600-962 limits assumed): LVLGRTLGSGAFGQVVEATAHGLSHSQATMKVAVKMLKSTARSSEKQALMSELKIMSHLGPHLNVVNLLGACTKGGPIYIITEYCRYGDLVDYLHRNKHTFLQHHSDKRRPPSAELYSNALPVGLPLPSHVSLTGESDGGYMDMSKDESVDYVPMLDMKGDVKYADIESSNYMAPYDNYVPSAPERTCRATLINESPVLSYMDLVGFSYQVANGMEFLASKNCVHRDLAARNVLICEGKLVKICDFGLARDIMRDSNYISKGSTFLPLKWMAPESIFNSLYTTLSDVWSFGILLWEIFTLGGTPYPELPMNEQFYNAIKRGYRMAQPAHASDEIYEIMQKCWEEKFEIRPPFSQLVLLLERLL
The experiment in a line: Inhibition of PDGF receptor kinase activity (ELISA). It counts as biochemical. To be noted: 20 μM ATP; read-out: PDGFR IC50. The method, then: Bridged indenopyrrolocarbazole compounds were examined for their inhibitory effects on the kinase activity of baculovirus-expresses PDGFβ receptor kinase domain using the trkA kinase ELISA described above. Assays were performed in substrate (PLC-γ/GST)-coated 96-well microtiter plates. Each 100-μl reaction mixture contained 50 mM HEPES, pH 7.4, 20 μM ATP, 10 mM MnCl2, 0.1% BSA, 2% DMSO, and various concentrations of inhibitor. The reaction was initiated by addition of prephosphorylated recombinant human enzyme (10 ng/ml PDGFRβ) and allowed to proceed for 15 minutes at 37° C. The prephosphorylated enzyme was prepared prior to use by incubation of the kinase in buffer containing 20 μM ATP and 10 mM MnCl2 for 1 hour at 4° C. Detection of phosphorylated product was done by adding horseradish peroxidase (HRP)-conjugated anti-phosphotyrosine antibody (UBI). The HRP substrate solution containing 3, 3′-5, 5′-tetramethylbenzidine and hydrogen peroxide was later added and the plates were incubated for 10 minutes at room temperature. The reaction was quenched with acid and the resulting absorbance was read at 450 nm using a Microplate Bio-kinetics Reader (Bio-Tek Instrument EL 312e). Inhibition data were analyzed using the sigmoidal dose-response (variable slope) equation in GraphPad Prism.

For assay [4], the system named is Spinal Cord ChAT. The experiment in a line: Enhancement of spinal cord ChAT activity in dissociated rat embryonic spinal cord culture. The class given is cell-based. The method, then: For example, In these assays, a compound was directly added to a dissociated spinal cord culture. Compounds which increased ChAT activity at least 120% of the control activity were considered active.
Methods: Fetal rat spinal cord cells were dissociated, and experiments were performed as described (Smith et al., J. Cell Biology 101:1608-1621(1985); Glicksman et al., J. Neurochem. 61:210-221(1993) ). Dissociated cells were prepared from spinal cords dissected from rats (embryonic day 14-15) by standard trypsin dissociation techniques (Smith et al., supra.). Cells were plated at 6×10^5 cells/cm^2 on poly-1-ornithine coated plastic tissue culture wells in serum-free N2 medium supplemented with 0.05% bovine serum albumin (BSA) (Bottenstein et al., PNAS USA 76:514-517 (1979) ). Cultures were incubated at 37° C. in a humidified atmosphere of 5% CO2/95% air for 48 hours. ChAT activity was measured after 2 days in vitro using a modification of the Fonnum procedure (Fonnum, J. Neurochem. 24:407-409 (1975) ) according to McManaman et al. and Glicksman et al. (McManaman et al., Developmental Biology 125:311-320(1988); Glicksman et al., J. Neurochem., supra.).

Assay [5] has as its target T4, trkA in NIH3T3 cells transfected with trkA (Homo sapiens, UniProt P04629).
T4 construct: expressed in transfected cells; host or cells: NIH3T3 cells
The experiment in a line: Inhibition of NGF-stimulated trk phosphorylation in a whole cell preparation. It counts as cell-based. Particulars: NGF 10 ng/ml, percent decrease in trk protein band. The procedure:
NIH3T3 cells transfected with trkA were grown in 100 mm dishes. Subconfluent cells were serum-starved by replacing media with serum-free 0.05% BSA-DMEM containing compound (100 nM and 1 μM) or DMSO (added to controls) for one hour at 37° C. NGF (Harlan/Bioproducts for Science) was then added to the cells at a concentration of 10 ng/ml for 5 minutes. Cells were lysed in buffer containing detergent and protease inhibitors. Clarified cell lysates were normalized to protein using BCA method and immunoprecipitated with anti-trk antibody. Polyclonal anti-trk antibody was prepared against a peptide corresponding to the 14 amino acids at the carboxy terminus of trk (Martin-Zanca et al., Mol. Cell. Biol. 9: 24-33, 1989). The immune complexes were collected on Protein A Sepharose beads (Sigma Chem. Co., St. Lois, Mo.), separated by SDS polyacrylamide gel electrophoresis (SDS-PAGE), and transferred to a polyvinylidene difluoride (PVDF) membrane. The membrane was immunoblotted with anti-phosphotyrosine antibody (UBI), followed by incubation with horseradish peroxidase coupled goat anti-mouse IgG (Bio-Rad Laboratories, Hercules, Calif.). Phosphorylated proteins were visualized using ECL (Amersham Lite Science, Inc., Arlington Heights, Ill.). The area of the trk protein band was measured and compared to NGF-stimulated control. The inhibition scoring system used, based on percent decrease in trk protein band, was as follows: 0=no decrease; 1=1-25%; 2=26-49%; 3=50-75%; 4=76-100% Results are shown below in Table 3.

For assay [6], the target named is protein kinase C (mixed isozymes of a, b, g). The experiment in a line: Inhibition of protein kinase C activity (Millipore Multiscreen TCA in-plate assay). Particulars: read-out: PKC IC50. The class given is biochemical. The procedure: Protein kinase C activity was assessed using the Millipore Multiscreen TCA “in-plate” assay as described in Pitt, A. M. and Lee, C. (J. Biomol. Screening, 1: 47-51, 1996). Assays were performed in 96-well Multiscreen-DP plates (Millipore). Each […] assay mixture contained 20 mM Hepes, pH 7.4, 10 mM MgCl2, 2.5 mM EGTA, 2.5 mM CaCl2, 80 mg/ml phosphatidyl serine, 3.2 mg/ml diolein, 200 mg/ml histone H-1(Fluka), 5 mM [γ-^32P]ATP, 1.5 ng protein kinase C (UBI; mixed isozymes of a, b, g), 0.1% BSA, 2% DMSO, and test bridged fused pyrrolocarbazole compound. The reaction was allowed to proceed for 10 min at 37° C., then quenched by adding ice cold 50% trichloroacetic acid. The plates were allowed to equilibrate for 30 min at 4° C., then washed with ice cold 25% TCA. Scintillation cocktail was added to the plates, and the radioactivity was determined using Wallac MicroBeta 1450 PLUS scintillation counter. The IC50 values were calculated by fitting the data to the sigmoidal dose-response (variable slope) equation in GraphPad Prism.

T4 sequence (P04629 33-796): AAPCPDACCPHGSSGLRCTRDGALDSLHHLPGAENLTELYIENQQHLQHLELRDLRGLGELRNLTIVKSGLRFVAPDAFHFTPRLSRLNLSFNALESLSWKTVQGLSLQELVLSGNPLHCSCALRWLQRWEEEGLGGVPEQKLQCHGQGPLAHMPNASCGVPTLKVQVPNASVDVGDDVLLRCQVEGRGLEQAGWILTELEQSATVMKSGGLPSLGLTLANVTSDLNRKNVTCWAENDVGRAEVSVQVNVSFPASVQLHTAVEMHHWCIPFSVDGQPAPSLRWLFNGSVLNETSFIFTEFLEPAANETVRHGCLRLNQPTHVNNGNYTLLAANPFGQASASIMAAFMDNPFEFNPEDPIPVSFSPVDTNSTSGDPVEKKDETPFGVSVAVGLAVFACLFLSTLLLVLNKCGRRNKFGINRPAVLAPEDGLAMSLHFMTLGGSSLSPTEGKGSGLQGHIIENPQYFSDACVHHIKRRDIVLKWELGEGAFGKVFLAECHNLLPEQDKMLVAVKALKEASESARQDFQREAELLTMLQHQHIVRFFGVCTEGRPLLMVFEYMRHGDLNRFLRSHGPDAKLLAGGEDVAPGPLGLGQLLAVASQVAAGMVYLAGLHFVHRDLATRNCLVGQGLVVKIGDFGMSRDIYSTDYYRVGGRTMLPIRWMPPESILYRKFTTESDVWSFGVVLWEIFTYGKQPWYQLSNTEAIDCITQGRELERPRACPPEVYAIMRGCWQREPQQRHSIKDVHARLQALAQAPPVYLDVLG
T1 sequence (P04629 440-796 limits assumed): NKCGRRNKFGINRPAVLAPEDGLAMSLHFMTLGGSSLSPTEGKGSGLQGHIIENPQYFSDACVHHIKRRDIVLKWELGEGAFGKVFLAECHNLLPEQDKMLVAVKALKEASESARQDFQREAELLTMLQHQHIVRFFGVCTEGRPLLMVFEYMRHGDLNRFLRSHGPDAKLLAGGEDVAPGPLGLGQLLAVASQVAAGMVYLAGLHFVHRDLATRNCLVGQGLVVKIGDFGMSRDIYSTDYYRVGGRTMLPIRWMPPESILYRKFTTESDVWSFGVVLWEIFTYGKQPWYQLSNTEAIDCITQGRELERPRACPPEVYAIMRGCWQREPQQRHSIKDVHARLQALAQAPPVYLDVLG

Take `O=C1NCc2c1c1c3c4c2c2ccccc2n4C2CCC(O2)C3c2ccccc2-1` (centres unmarked) [II-1]: the concentration for half-maximal inhibition (IC50) in assay [1] came out at 13 nM; in assay [2] it was 30 nM; in assay [3], 1380 nM; in assay [6], 1300 nM. In addition, the “Spinal Cord ChAT Activity at 30 nM” value in assay [4] (30 nM, active if at least 120% of control) worked out at 114 % control. Further, the “Spinal Cord ChAT Maximal Activity” value in assay [4] (concentration of maximal activity printed in cell (300 nM)) was 139 @ 300 nM % control. Moreover, in assay [5] (100 nM compound), the “Inhibition Score at 100 nM” value is 3 (3=50-75%). Besides, in assay [5] (1000 nM compound), the “Inhibition Score at 1000 nM” value is listed as 4 (4=76-100%).
